Source: PubChem BioAssay (NCI)
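Results reflect a 48-hour exposure of cells in 96-well plates to compound at five concentrations. GI50 = concentration required for 50% inhibition of growth. Definition used: TGI = concentration required for complete inhibition of growth.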

What was measured:
Assay in all cases: NCI anticancer screen, dose series, 48 h
[1] = tested on: RXF 393 renal
[2] = tested on: M14 melanoma
[3] = tested on: UO-31 renal
[4] = tested on: SK-OV-3 ovarian
[5] = tested on: SNB-75 CNS
[6] = tested on: MDA-MB-435
[7] = tested on: SK-MEL-5 melanoma
[8] = tested on: OVCAR-8 ovarian
[9] = tested on: NCI-H226 lung
[10] = tested on: SK-MEL-28 melanoma

Row | SMILES | GI50 [1] [µM] | TGI [1] [µM] | GI50 [2] [µM] | TGI [2] [µM] | GI50 [3] [µM] | TGI [3] [µM] | GI50 [4] [µM] | TGI [4] [µM] | GI50 [5] [µM] | TGI [5] [µM] | GI50 [6] [µM] | TGI [6] [µM] | GI50 [7] [µM] | TGI [7] [µM] | GI50 [8] [µM] | TGI [8] [µM] | GI50 [9] [µM] | TGI [9] [µM] | GI50 [10] [µM] | TGI [10] [µM]
1 | CC[N+](CC)=c1sc2c(s1)C(c1ccc(Cl)cc1)Oc1ccc(Cl)cc1-2 (stereo not given) | 2.26 | 4.86 | 1.86 | 4 | 2.82 | 15.4 | 2.51 | 8.72 | 0.783 | 10.6 | 2.04 | 4.66 | 1.22 | 2.53 | 1.97 | 5.41 | 5.56 | 33.1 | 1.32 | 2.82
2 | O=c1c(Oc2ccc(F)cc2F)cc2cnc(NC3CCOCC3)nc2n1CCCO | > 25 | > 25 | > 25 | > 25 | > 11.3 | > 21.1 | > 25 | > 25 | 24.4 | > 25 | > 25 | > 25 | > 25 | > 25 | > 25 | > 25 | > 25 | > 25 | > 25 | > 25
3 | COc1cccc(-c2nc3sccn3c2-c2ccnc(NCCCNS(=O)(=O)c3cccc(F)c3)c2)c1 | 2.47 | > 100 | 2.35 | 6.05 | 1.25 | 5.37 | 4.86 | > 100 | 1.73 | 5.47 | 2.29 | 5.71 | 1.56 | 3.63 | 2.42 | 18.9 | 2.38 | 8.38 | 2.96 | 9.82
4 | CC(C)CCC(=O)c1ccoc1 | – | > 100 | – | > 100 | – | > 100 | – | > 100 | – | > 100 | – | > 100 | – | > 100 | – | > 100 | – | > 100 | – | > 100
